What was measured:
Sarcoma 180 [1] = assay: Antitumor activity, solid Sarcoma 180 (Table I), T/C tumor weight ratio, sacrifice day 10; format: in vivo, female Swiss white mice
Description: The compounds of the invention were tested for anti-tumor activity using our standard screening tumor, solid sarcoma 180 tumer in female Swiss white mice, following standard protocols for this testing as set by the National Cancer Institute. (Cancer Chemotherapy Rep., 25(1962)).
For these tests an S 180 tumor taken from a sacrificed mouse was disected free of superfluous tissue and cut under sterile conditions into approximately 10 milligram size pieces. These tissue pieces were then implanted by trocar in the left axillary region, subcutaneously, in new mice. The mice were, on the average, approximately four weeks old and weighed 18-20 grams. Taking day 0 as the day of implant, the animals were sacrificed on day 10. The tumors were excised and weighed and the ratio of the weights of the tumors in mice in the treated animals to the control set of animals was obtained. This ratio, multiplied by 100, is given as the T/C ratio in Table I.
For the first set of tests the coordination compound was freshly dissolved in sterile distilled water and injected intraperitoneally on day 1 into each of the test mice. The volume of the injection was usually 1/2 ml. In some cases, in order to get an active dose into the animal where the chemical was not soluble in this amount of solvent, a fine dispersion was prepared of the dose needed for the test. Thus, some of our test results were obtained on animals where a slurry of the compound was injected. These are so noted in Table I below. In addition, for some of the compounds, there was injected about 1 ml of solution, either in one single injection, or in 2 injections given a few hours apart of 1/2 ml each. These injections were initially given in 4 different dose levels for each new compound with 6 mice in each dose level. The tests covered a dose range from a low ineffective dose, to an upper dose level which produced some deaths within the time period of the experiment.

ADJ/PC6A = assay: Confirmatory antitumor activity, ADJ/PC6A (Table III); format: in vivo, Mouse; conditions: i.p.
Description: (§1) Confirmatory tests of antitumor activity against the Walker 256 Circinosarcoma in rats, and the ADJ/PC6A tumor in mice were conducted. The initial test results are shown in Table III and confirm the potent action of the compounds of the invention against these other tumor systems.

[2] = tested on: Walker 256 Carcinosarcoma; assay: Confirmatory antitumor activity, Walker 256 Carcinosarcoma (Table III); format: in vivo, Rat; conditions: i.p.
Description: as §1

L1210 = assay: Confirmatory antitumor activity at the National Cancer Institute, L1210 (Table IV); format: in vivo, Mice
Source text: Samples of the malonato diammine and malonato ethylene diamino complexes of platinum(II) were submitted to the Drug Research and Development Branch of the National Cancer Institute for screening for antitumor activity against the L1210 tumor in mice. They confirm the activity of the compounds of the invention.

Sarcoma 180 [3] = assay: Large Sarcoma 180 regressions (Table II), injection day 8, observed approximately 60 days; format: in vivo, female Swiss white mice; conditions: single i.p. day 8, H2O solution
Description: In addition to the day 1 injections described above, in a number of cases injections were delayed until day 8 of tumor growth. In these cases the tumor was usually at least larger than 1/2 gm, as estimated by palpation. The animals were then injected and observed for a period of approximately 60 days. Activity was measured by the number of animals whose tumors had regressed to the vanishing point, while still allowing the animal to survive for this time period. Such test results are described in TABLE II below.

[4] = 20 mg/kg, single i.p. day 1, vehicle not noted
[5] = 40 mg/kg, single i.p. day 1, vehicle not noted
[6] = 60 mg/kg, single i.p. day 1, vehicle not noted
[7] = 80 mg/kg, single i.p. day 1, vehicle not noted
[8] = 100 mg/kg, single i.p. day 1, vehicle not noted
[9] = 120 mg/kg, single i.p. day 1, vehicle not noted
[10] = 160 mg/kg, single i.p. day 1, vehicle not noted
[11] = 30 mg/kg, single i.p. day 1, solution in H2O
[12] = 40 mg/kg, single i.p. day 1, solution in H2O
[13] = 50 mg/kg, single i.p. day 1, solution in H2O
[14] = 60 mg/kg, single i.p. day 1, solution in H2O
[15] = 70 mg/kg, single i.p. day 1, solution in H2O
[16] = 80 mg/kg, single i.p. day 1, solution in H2O
[17] = 90 mg/kg, single i.p. day 1, vehicle not noted
[18] = 110 mg/kg, single i.p. day 1, vehicle not noted
[19] = 45 mg/kg, single i.p. day 1, vehicle not noted
[20] = 75 mg/kg, single i.p. day 1, vehicle not noted
[21] = 140 mg/kg, single i.p. day 1, vehicle not noted
[22] = 180 mg/kg, single i.p. day 1, vehicle not noted
[23] = dose 4, single injection day 25 in oil
[24] = dose 20, single injection day 25 in oil
[25] = dose 100, single injection day 25 in oil
[26] = 10 mg/kg, single i.p. day 1, solution in H2O
[27] = 20 mg/kg, single i.p. day 1, solution in H2O
[28] = 45 mg/kg, single i.p. day 1, solution in H2O
[29] = 55 mg/kg, single i.p. day 1, solution in H2O
[30] = 10 mg/kg, single injection day 1 in oil
[31] = 20 mg/kg, single injection day 1 in oil
[32] = 40 mg/kg, single injection day 1 in oil
[33] = 90 mg/kg, single i.p. day 1, solution in H2O

N.N.O=C([O-])C1(C(=O)[O-])CCC1.[Pt+4] [1,1-cyclobutanedicarboxylate diammineplatinum (II)]
No. of Deaths (Sarcoma 180 [1]; [4]): 0
T/C (Sarcoma 180 [1]; [4]): 71
No. of Deaths (Sarcoma 180 [1]; [5]): 0
T/C (Sarcoma 180 [1]; [5]): 60
No. of Deaths (Sarcoma 180 [1]; [6]): 0
T/C (Sarcoma 180 [1]; [6]): 38
No. of Deaths (Sarcoma 180 [1]; [7]): 0
T/C (Sarcoma 180 [1]; [7]): 42
No. of Deaths (Sarcoma 180 [1]; [8]): 0
T/C (Sarcoma 180 [1]; [8]): 69
No. of Deaths (Sarcoma 180 [1]; [9]): 0
T/C (Sarcoma 180 [1]; [9]): 18
No. of Deaths (Sarcoma 180 [1]; [10]): 4
T/C (Sarcoma 180 [1]; [10]): 62

CC1C(=O)[O][Pt]([NH2])([NH2])[O]C1=O [Methylmalonatodiammineplatinum(II)]
No. of Deaths (Sarcoma 180 [1]; [11]): 0
T/C (Sarcoma 180 [1]; [11]): 39
No. of Deaths (Sarcoma 180 [1]; [12]): 0
T/C (Sarcoma 180 [1]; [12]): 26
No. of Deaths (Sarcoma 180 [1]; [13]): 0
T/C (Sarcoma 180 [1]; [13]): 35
No. of Deaths (Sarcoma 180 [1]; [14]): 0
T/C (Sarcoma 180 [1]; [14]): 6
No. of Deaths (Sarcoma 180 [1]; [15]): 3/6
T/C (Sarcoma 180 [1]; [15]): 124
No. of Deaths (Sarcoma 180 [1]; [16]): 6/6

CCC1C(=O)[O][Pt]2([NH]CC[NH]2)[O]C1=O [ethylmalonatoethylenediamineplatinum (II)]
No. of Deaths (Sarcoma 180 [1]; [5]): 0
T/C (Sarcoma 180 [1]; [5]): 72
No. of Deaths (Sarcoma 180 [1]; [6]): 0
T/C (Sarcoma 180 [1]; [6]): 81
No. of Deaths (Sarcoma 180 [1]; [7]): 0
T/C (Sarcoma 180 [1]; [7]): 79
No. of Deaths (Sarcoma 180 [1]; [17]): 0
T/C (Sarcoma 180 [1]; [17]): 47
No. of Deaths (Sarcoma 180 [1]; [8]): 1
T/C (Sarcoma 180 [1]; [8]): 55
No. of Deaths (Sarcoma 180 [1]; [18]): 0
T/C (Sarcoma 180 [1]; [18]): 41
No. of Deaths (Sarcoma 180 [1]; [9]): 0
T/C (Sarcoma 180 [1]; [9]): 58

CCC(C(=O)[O-])C(=O)[O-].N.N.[Pt+2] [ethylmalontodiammineplatinum(II)]
No. of Deaths (Sarcoma 180 [1]; [11]): 0
T/C (Sarcoma 180 [1]; [11]): 57
No. of Deaths (Sarcoma 180 [1]; [12]): 0
T/C (Sarcoma 180 [1]; [12]): 43
No. of Deaths (Sarcoma 180 [1]; [13]): 0
T/C (Sarcoma 180 [1]; [13]): 47
No. of Deaths (Sarcoma 180 [1]; [14]): 0
T/C (Sarcoma 180 [1]; [14]): 39
No. of Deaths (Sarcoma 180 [1]; [15]): 0
T/C (Sarcoma 180 [1]; [15]): 17
No. of Deaths (Sarcoma 180 [1]; [16]): 0
T/C (Sarcoma 180 [1]; [16]): 16

CC(N)CN.O=C([O-])CC(=O)[O-].[Pt+2] [malonato-1,2 propylenediamineplatinum (II)]
No. of Deaths (Sarcoma 180 [1]; [19]): 0
T/C (Sarcoma 180 [1]; [19]): 50
No. of Deaths (Sarcoma 180 [1]; [6]): 1
T/C (Sarcoma 180 [1]; [6]): 9
No. of Deaths (Sarcoma 180 [1]; [20]): 3
T/C (Sarcoma 180 [1]; [20]): 16
No. of Deaths (Sarcoma 180 [1]; [17]): 5

NCCCN.O=C([O-])CC(=O)[O-].[Pt+2] [malonato-1,3 propylenediamineplatinum (II)]
No. of Deaths (Sarcoma 180 [1]; [4]): 0
T/C (Sarcoma 180 [1]; [4]): 69
No. of Deaths (Sarcoma 180 [1]; [5]): 0
T/C (Sarcoma 180 [1]; [5]): 79
No. of Deaths (Sarcoma 180 [1]; [6]): 0
T/C (Sarcoma 180 [1]; [6]): 21
No. of Deaths (Sarcoma 180 [1]; [7]): 1
T/C (Sarcoma 180 [1]; [7]): 35

CN.CN.O=C([O-])CC(=O)[O-].[Pt+2] [malonatobis(methylamine) platinum (II)]
No. of Deaths (Sarcoma 180 [1]; [7]): 0
T/C (Sarcoma 180 [1]; [7]): 58
No. of Deaths (Sarcoma 180 [1]; [8]): 0
T/C (Sarcoma 180 [1]; [8]): 53
No. of Deaths (Sarcoma 180 [1]; [9]): 0
T/C (Sarcoma 180 [1]; [9]): 28
No. of Deaths (Sarcoma 180 [1]; [21]): 0
T/C (Sarcoma 180 [1]; [21]): 25
No. of Deaths (Sarcoma 180 [1]; [10]): 1
T/C (Sarcoma 180 [1]; [10]): 17
No. of Deaths (Sarcoma 180 [1]; [22]): 1
T/C (Sarcoma 180 [1]; [22]): 19

NCCN.O=C([O-])CC(=O)[O-].[Pt+2] [malonatoethylenediamineplatinum (II)]
% Inhibition (ADJ/PC6A; [23]): 1.3%
Deaths (ADJ/PC6A; [23]): 0
% Inhibition (ADJ/PC6A; [24]): 94%
Deaths (ADJ/PC6A; [24]): 0
% Inhibition (ADJ/PC6A; [25]): 100%
Deaths (ADJ/PC6A; [25]): 0
Deaths (ADJ/PC6A; dose 500, single injection day 25 in oil): all
No. of Deaths (Sarcoma 180 [1]; [26]): 0
T/C (Sarcoma 180 [1]; [26]): 88
No. of Deaths (Sarcoma 180 [1]; [27]): 0
T/C (Sarcoma 180 [1]; [27]): 58
No. of Deaths (Sarcoma 180 [1]; [12]): 0
T/C (Sarcoma 180 [1]; [12]): 18
No. of Deaths (Sarcoma 180 [1]; [28]): 0
T/C (Sarcoma 180 [1]; [28]): 49
No. of Deaths (Sarcoma 180 [1]; [13]): 0
T/C (Sarcoma 180 [1]; [13]): 35
No. of Deaths (Sarcoma 180 [1]; [29]): 0
T/C (Sarcoma 180 [1]; [29]): 38
No. of Deaths (Sarcoma 180 [1]; [14]): 3/6
T/C (Sarcoma 180 [1]; [14]): 15
No. of Deaths (Sarcoma 180 [1]; [6]): 0
T/C (Sarcoma 180 [1]; [6]): 80
No. of Deaths (Sarcoma 180 [1]; [16]): 3/6
T/C (Sarcoma 180 [1]; [16]): 24
No. of Deaths (Sarcoma 180 [1]; [7]): 0
T/C (Sarcoma 180 [1]; [7]): 138
No. of Deaths (Sarcoma 180 [1]; [8]): 0
T/C (Sarcoma 180 [1]; [8]): 85
No. of Deaths (Sarcoma 180 [1]; [9]): 0
T/C (Sarcoma 180 [1]; [9]): 50
% Inhibition [2, 30]: 1%
Deaths [2, 30]: 0
% Inhibition [2, 31]: 25%
Deaths [2, 31]: 0
% Inhibition [2, 32]: 100%
Deaths [2, 32]: 0
Deaths ([2]; 80 mg/kg, single injection day 1 in oil): 0
% Inhibition ([2]; dose 80, single injection day 1 in oil): 100%
Deaths ([2]; dose 160, single injection day 1 in oil): all
% Increase in Lifespan (L1210; 16.5 mg/kg, i.p. daily days 1-9, repeat test): 160%
% Increase in Lifespan (L1210; 25 mg/kg, i.p. daily days 1-9): 160%
Deaths (Sarcoma 180 [3]; 40 mg/kg): 3
Total Number of Regressions (Sarcoma 180 [3]; 40 mg/kg): 3
Deaths (Sarcoma 180 [3]; 45 mg/kg): 5
Total Number of Regressions (Sarcoma 180 [3]; 45 mg/kg): 1
Deaths (Sarcoma 180 [3]; 50 mg/kg): 4
Total Number of Regressions (Sarcoma 180 [3]; 50 mg/kg): 2
Deaths (Sarcoma 180 [3]; 60 mg/kg): 3
Total Number of Regressions (Sarcoma 180 [3]; 60 mg/kg): 3

CC1C(=O)[O][Pt]2([NH]CC[NH]2)[O]C1=O [methylmalonatoethylenediamineplatinum (II)]
No. of Deaths (Sarcoma 180 [1]; [11]): 0
T/C (Sarcoma 180 [1]; [11]): 78
No. of Deaths (Sarcoma 180 [1]; [12]): 0
T/C (Sarcoma 180 [1]; [12]): 80
No. of Deaths (Sarcoma 180 [1]; [13]): 0
T/C (Sarcoma 180 [1]; [13]): 51
No. of Deaths (Sarcoma 180 [1]; [14]): 0
T/C (Sarcoma 180 [1]; [14]): 26
No. of Deaths (Sarcoma 180 [1]; [15]): 1
T/C (Sarcoma 180 [1]; [15]): 20
No. of Deaths (Sarcoma 180 [1]; [33]): 1
T/C (Sarcoma 180 [1]; [33]): 4

Reference: patent publication US4140707A, “Malonato platinum anti-tumor compounds” (priority 1977, dated 1979)
